Results as given in patent publication US20200190073A1, “SUBSTITUTED SUCCINIMIDE DERIVATIVES AS PESTICIDES” (BASF SE, priority 2017, published 2020).

Columns and labels:
Type in all cases: in vivo
[1] = system: Rice Green Leafhopper (Nephotettix virescens); assay: CE.5 Rice green leafhopper, comparative test; settings: 72 h, read-out: % mortality in comparison to untreated controls
[2] = system: Southern Armyworm (Spodoptera eridania), 2nd Instar Larvae; assay: CE.7 Southern armyworm, 2nd instar larvae, comparative test; settings: foliar, 96 h, leaf dip, at 4 days, read-out: % mortality in comparison to untreated controls
Procedure: (§1) The tables show % mortality in comparison to untreated controls.
CE.7 Southern Armyworm (Spodoptera eridania), 2nd Instar Larvae
The active compounds were formulated in 50:50 acetone:water (vol) and 100 ppm Kinetica™ surfactant.
A pair of first true leaves of Sieva lima bean was dipped into the test solution and allowed to dry. The leaves were then placed in a plastic perforated zip enclosure bag and ten 2nd instar larvae were added. At 4 days, observations were made of mortality and reduced feeding.

[3] = system: Silverleaf Whitefly (Bemisia argentifolii); assay: CE.4 Silverleaf whitefly, comparative test; settings: 72 h, read-out: % mortality in comparison to untreated controls
Procedure: as §1
CE.4 Silverleaf Whitefly (Bemisia argentifolii)
The active compounds were formulated in 50:50 acetone:water (vol:vol) and 100 ppm Kinetica™ surfactant.
Selected cotton plants were grown to the cotyledon state (one plant per pot). The cotyledons were dipped into the test solution to provide complete coverage of the foliage and placed in a well-vented area to dry. Each pot with treated seedling was placed in a plastic cup and 10 to 12 whitefly adults (approximately 3-5 day old) were introduced. The insects were collected using an aspirator and a Tygon® tubing connected to a barrier pipette tip. The tip, containing the collected insects, was then gently inserted into the soil containing the treated plant, allowing insects to crawl out of the tip to reach the foliage for feeding. The cups were covered with a reusable screened lid. Test plants were maintained in the holding room at about 25° C. and about 20-40% relative humidity for 3 days avoiding direct exposure to the fluorescent light (24 hour photoperiod) to prevent trapping of heat inside the cup. Mortality was assessed 3 days after treatment of the plants.

[4] = system: Diamond back moth (Plutella xylostella); assay: CE.6 Diamond back moth, contact activity, comparative test; settings: read-out: % mortality in comparison to untreated controls
Procedure: as §1
CE.6 Diamond Back Moth (Plutella xylostella)
Ten third-instar larvae are sprayed with 1 ml test solution and introduce to untreated leaves held petri dished lined with moist filter paper. Mortality is recorded 24, 72, and 120 hours after treatment.

## O=C(NC1CCN(CC(F)(F)F)C1=O)c1ccc(C2=NOC(c3cc(Cl)c(F)c(Cl)c3)(C(F)(F)F)C2)c2c1CCC2 (stereo not shown) [Tab. 128, A-9 of WO 2015128358, reference compound]
[1]
  mortality at 3 ppm: 0%
[2]
  mortality at 3 ppm: 0%
[3]
  mortality at 10 ppm: 50%
[4]
  mortality at 0.1 ppm: 0%
